Assay results: US20240307577A1, “CHLORINATED 4'-ALKYLUMBELLIFERYL ALPHA-D-GLUCOPYRANOSIDE AND METHOD OF ASSESSING EFFICACY OF A STERILIZATION PROCESS INCLUDING THE SAME” (3M INNOVATIVE PROPERTIES COMPANY, priority 2021, published 2024)

Tested on: Geobacillus stearothermophilus spores (ATCC 7953)
Assay: Fluorescence of enzyme substrates in culture media with Geobacillus stearothermophilus spores (96-well plate, 60° C.)
Format: cell-based
Details: for MEASURED FLUORESCENCE, RFU 10 Sec / MEASURED FLUORESCENCE, RFU +5 min / MEASURED FLUORESCENCE, RFU +10 min / MEASURED FLUORESCENCE, RFU +30 min / MEASURED FLUORESCENCE, RFU 10 sec: substrate 0.3 mg/mL, 60° C.; for fluorescent signal in the presence of Geobacillus stearothermophilus spores compared with MUG and 8F-MUG: high and low spore levels, two low pH levels, MUG also at its optimal pH of 8.0
Description: Culture media was prepared by dissolving by dissolving 2 g/L phytone peptone (BD BBL 211906) and 0.2 g/L L-alanine (Sigma 05129) in deionized water. 1N NaOH or 0.1 N HCl were used to adjust pH, and media were brought to volume and filter sterilizing using a 0.22 micron polyethersulfone (PES) filter. Stock solutions (25 mg/ml) of 6′-chloro-4′-methylumbelliferyl-a-D-glucopyranoside, 8′-chloro-4′-methylumbelliferyl-a-D-glucopyranoside, 8′-fluoro-4′-methylumbelliferyl-a-D-glucopyranoside, and 4-methylumbelliferyl-a-D-glucopyranoside were prepared in DMSO. The fluorogenic a-glucosidase substrates were added to culture media at a final concentration of 0.3 mg/ml.
(§1) Culture media (pH 6.7) containing 6′-chloro-4′-methylumbelliferyl α-D-glucopyranoside (0.3 mg/mL) was each added to eight wells (100 microliters per well) of a black 96-well microtiter plate with (NUNC #165301, Thermo Fisher Scientific, Waltham, Massachusetts). A 5-microliter aqueous suspension containing 5×10^3 Geobacillus stearothermophilus spores (ATCC 7953) was added to 4 of the wells for each medium in the microtiter plate. […] The top of the plate was covered with an optically clear sealing film (product #4311971, Applied Biosystems Corporation, Foster City, California). The plate was warmed at 60° C. and shaken in a linear direction. Fluorescence readings (360 nm excitation/450 nm emission at 50% gain) were taken from the bottom of the plate. A reading was taken at an initial time point of 10 seconds and then at +1-minute intervals thereafter. A Synergy Neo2 fluorescence plate reader (BioTek Company, Winooski, Vermont) was used. In Table 1, the mean fluorescence values detected (RFU) at times of 10 seconds, +5 minutes, +10 minutes, and +30 minutes are reported. The mean fluorescence values detected for the control wells were 511 RFU at 10 seconds; 426 RFU at +5 minutes: 373 RFU at +10 minutes, and 310 RFU at +30 minutes.
as §1, with “(pH 7.0)” for “(pH 6.7)”, “Table 2,” for “Table 1,”, “were 512” for “were 511”, “seconds; 417” for “seconds; 426”, “+5 minutes; 363” for “+5 minutes: 373”, “and 308” for “and 310”
Culture media (pH 6.7) containing 6′-chloro-4′-methylumbelliferyl α-D-glucopyranoside (0.3 mg/mL) was each added to eight wells (100 microliters per well) of a black 96-well microtiter plate with (NUNC #165301, Thermo Fisher Scientific, Waltham, Massachusetts). A 5-microliter aqueous suspension containing 5×10^5 Geobacillus stearothermophilus spores (ATCC 7953) was added to 4 of the wells for each medium in the microtiter plate. […] The top of the plate was covered with an optically clear sealing film (product #4311971, Applied Biosystems Corporation, Foster City, California). The plate was warmed at 60° C. and shaken in a linear direction. Fluorescence readings (360 nm excitation/450 nm emission at 50% gain) were taken from the bottom of the plate. […]

[1] = 5 × 10^3 spores, culture media pH 6.7, 360 nm ex/450 nm em
[2] = 5 × 10^3 spores, culture media pH 6.7
[3] = 5 × 10^3 spores, culture media pH 7.0
[4] = 5 × 10^5 spores, culture media pH 6.7
[5] = 5 × 10^5 spores, culture media pH 7.0
[6] = 5 × 10^3 spores, culture media pH 8.0
[7] = 5 × 10^5 spores, culture media pH 8.0

Row | Structure (SMILES) | MEASURED FLUORESCENCE, RFU 10 Sec [1] [RFU] | MEASURED FLUORESCENCE, RFU +5 min [2] [RFU] | MEASURED FLUORESCENCE, RFU +10 min [2] [RFU] | MEASURED FLUORESCENCE, RFU +30 min [2] [RFU] | MEASURED FLUORESCENCE, RFU 10 Sec [3] [RFU] | MEASURED FLUORESCENCE, RFU +5 min [3] [RFU] | MEASURED FLUORESCENCE, RFU +10 min [3] [RFU] | MEASURED FLUORESCENCE, RFU +30 min [3] [RFU] | MEASURED FLUORESCENCE, RFU 10 sec [4] [RFU] | MEASURED FLUORESCENCE, RFU +5 min [4] [RFU] | MEASURED FLUORESCENCE, RFU +10 min [4] [RFU] | MEASURED FLUORESCENCE, RFU +30 min [4] [RFU] | MEASURED FLUORESCENCE, RFU 10 sec [5] [RFU] | MEASURED FLUORESCENCE, RFU +5 min [5] [RFU] | MEASURED FLUORESCENCE, RFU +10 min [5] [RFU] | MEASURED FLUORESCENCE, RFU +30 min [5] [RFU] | fluorescent signal in the presence of Geobacillus stearothermophilus spores compared with MUG and 8F-MUG | also measured
1 | Cc1cc(=O)oc2cc(O[C@H]3O[C@H](CO)[C@@H](O)[C@H](O)[C@H]3O)c(Cl)cc12 [Example 1, 6′-chloro-4′-methylumbelliferyl α-D-glucopyranoside] | 1013 | 2251 | 4622 | 12582 | 1226 | 2377 | 4424 | 11941 | 17227 | 53202 | 79375 | 98077 | 18386 | 53621 | 81061 | 99019 | higher fluorescent signal | 
2 | Cc1cc(=O)oc2c(Cl)c(O[C@H]3O[C@H](CO)[C@@H](O)[C@H](O)[C@H]3O)ccc12 [Example 2, 8′-chloro-4′-methylumbelliferyl α-D-glucopyranoside] | 1164 | 3013 | 6278 | 15253 | 1500 | 3370 | 6612 | 16521 | 21302 | 56949 | 73987 | 81560 | 21883 | 58454 | 77112 | 83010 | higher fluorescent signal | 
3 | Cc1cc(=O)oc2c(F)c(O[C@H]3O[C@H](CO)[C@@H](O)[C@H](O)[C@H]3O)ccc12 [Example 8F-MUG, 8′-fluoro-4′-methylumbelliferyl α-D-glucopyranoside, reference compound] | 693 | 1422 | 2869 | 8410 | 777 | 1573 | 3153 | 9038 | 8975 | 31069 | 50175 | 67041 | 8171 | 34178 | 56663 | 70392 |  | 
4 | Cc1cc(=O)oc2cc(O[C@H]3O[C@H](CO)[C@@H](O)[C@H](O)[C@H]3O)ccc12 [MUG, 4′-methylumbelliferyl-α-D-glucopyranoside, reference compound] | 430 | 403 | 464 | 991 |  |  |  |  | 895 | 3260 | 8049 | 29586 |  |  |  |  |  | MEASURED FLUORESCENCE, RFU 10 Sec [6]: 540 RFU; MEASURED FLUORESCENCE, RFU +5 min [6]: 658 RFU; MEASURED FLUORESCENCE, RFU +10 min [6]: 993 RFU; MEASURED FLUORESCENCE, RFU +30 min [6]: 2891 RFU; MEASURED FLUORESCENCE, RFU 10 sec [7]: 2644 RFU; MEASURED FLUORESCENCE, RFU +5 min [7]: 12059 RFU; MEASURED FLUORESCENCE, RFU +10 min [7]: 29277 RFU; MEASURED FLUORESCENCE, RFU +30 min [7]: 75861 RFU
